Like-named read-outs stand apart in the source and are kept apart here.
Legend:
[1] = test system: lung cancer A-549 cell line; assay: CellTiter-Glo Luminescent cell viability assay, anti-proliferative activity, A-549; type: cell-based, human; settings: for IC50: read-out: IC50 A-549; for inhibition at 30 µM: A549, 30 µM single concentration, quadruplicate, read-out: Growth inhibition % A-549
Procedure: (§1) The anti-proliferative activity of the title compounds 3a-e, 5a-e, 7a-c, and 10a-l towards cancer cell lines, normal cell lines, and multidrug-resistant lung cancer NCI-H69AR cell line was determined using CellTiter-Glo™ Luminescent cell viability assay according to the previously published procedures[14]^,[15].
(§2) The cancer cell growth inhibitory activity of the synthesised 25 compounds 3a-e, 5a-e, 7a-c, and 10a-l was evaluated in vitro towards three human cancer cell lines, namely lung cancer A-549, human colon cancer HT-29, and breast cancer ZR-75 cell lines using CellTiter-Glo™ Luminescent cell viability assay. Sunitinib was included in this assay as a reference drug.
(§3) The prepared hydrazonoindolin-2-ones were first evaluated at preliminary anti-proliferative assay against the three cancer cell lines in quadruplicate at a single concentration of 30 µM. The data presented as percentage growth inhibition (GI%) caused by the test compounds (Table 1).

[2] = test system: breast cancer ZR-75 cell line; assay: CellTiter-Glo Luminescent cell viability assay, anti-proliferative activity, ZR-75; type: cell-based; settings: Homo sapiens, ZR75; 30 µM single concentration, quadruplicate; read-out: Growth inhibition % ZR-75
Procedure: as §1, §2, §3

[3] = test system: colon cancer HT-29 cell line; assay: CellTiter-Glo Luminescent cell viability assay, anti-proliferative activity, HT-29; type: cell-based, human; settings: Homo sapiens, HT-29; 30 µM single concentration, quadruplicate; read-out: Growth inhibition % HT-29
Procedure: as §1, §2, §3

[4] = test system: A-549, ZR-75 and HT-29 cell lines; assay: Average anti-proliferative activity over the three cancer cell lines; type: cell-based, human; settings: average over A-549, ZR-75, HT-29; for Average growth inhibition % / inhibition at 30 µM: 30 µM; for inhibition at 30 µM / IC50: Homo sapiens; for inhibition at 30 µM: read-out: Average growth inhibition %
Procedure: as §1, §2, §3

[5] = test system: breast cancer ZR-75 cell line; assay: CellTiter-Glo Luminescent cell viability assay, anti-proliferative activity, ZR-75; type: cell-based, human
[6] = test system: colon cancer HT-29 cell line; assay: CellTiter-Glo Luminescent cell viability assay, anti-proliferative activity, HT-29; type: cell-based; settings: Homo sapiens, mean ± SD of four separate experiments
[7] = Homo sapiens, A549, mean ± SD of four separate experiments
[8] = Homo sapiens, ZR75, mean ± SD of four separate experiments
[9] = mean ± SD of four separate experiments

Row | SMILES | IC50 [1, 7] | inhibition at 30 µM ([1]; Homo sapiens) | inhibition at 30 µM [2] | inhibition at 30 µM [3] | Average growth inhibition % [4] | inhibition at 30 µM [4] | IC50 [4] | melting point | IC50 [5, 8] | IC50 [6] | IC50 ([5]; mean ± SD of four separate experiments, listed as 4d) | IC50 [5, 9] | IC50 [1, 9]
1 | Cc1ccc(-c2csc(NN=C3C(=O)Nc4ccc(Br)cc43)n2)cc1 [Compound 10j, 5-Bromo-3–(2-(4–(4-tolyl)thiazol-2-yl)hydrazono)indolin-2-one] | 12.8 ± 1.4 µM | 85.9 ± 9.1% | 73.1 ± 3.5% | 90.1 ± 5.3% | 83.0% | > 80% | 13 µM | > 300 °C | 10.9 ± 2.81 µM | 15.2 ± 1.1 µM |  |  | 
2 | O=C1Nc2ccc(Cl)cc2C1=NN=Cc1nccs1 [Compound 5b, 5-Chloro-3-((thiazol-2-ylmethylene)hydrazono)indolin-2-one] | 4.87 ± 0.49 µM | 93.6 ± 5.4% | 95 ± 8.2% | 96.2 ± 4.5% |  | 94.9% | 4.37 µM | 293 to 295 °C | 2.09 ± 0.12 µM | 6.15 ± 0.51 µM |  |  | 
3 | CC(=O)c1ccc(C=NN=C2C(=O)Nc3ccc(Br)cc32)cc1 [Compound 3d, 3-((4-Acetylbenzylidene)hydrazono)-5-bromoindolin-2-one] | 26.1 ± 4.47 µM | 17.3 ± 10.2% | 53.9 ± 14.4% | 56.8 ± 15.1% |  | 42.7% | > 28.7 µM | 270 to 272 °C | > 30 µM | > 30 µM | > 30 µM |  | 
4 | O=C1Nc2ccc(Br)cc2C1=NN=Cc1nccs1 [Compound 5d, 5-Bromo-3-((thiazol-2-ylmethylene)hydrazono)indolin-2-one] | 12.5 ± 1.73 µM | 94.8 ± 2.5% | 96.4 ± 1.5% | 98.5 ± 3.1% |  | 96.6% | 13.5 µM | 260 to 262 °C | 12.7 ± 2.4 µM | 15.3 ± 1.93 µM |  |  | 
5 | O=C1Nc2ccc(Br)cc2C1=NNc1nc(-c2ccccc2)cs1 [Compound 10i, 5-Bromo-3–(2-(4-phenylthiazol-2-yl)hydrazono)indolin-2-one] | 6.13 ± 0.76 µM | 92.3 ± 6.2% | 97.5 ± 3.1% | 96.3 ± 5.9% | 95.4% | > 80% | 5.45 µM | 285 to 287 °C | 1.96 ± 0.85 µM | 8.26 ± 0.86 µM |  |  | 
6 | O=C1Nc2ccccc2C1=NNc1nc(-c2ccc(Cl)cc2)cs1 [Compound 10c, 3–(2-(4–(4-Chlorophenyl)thiazol-2-yl)hydrazono)indolin-2-one] | 17.2 ± 2.56 µM | 31.4 ± 9.1% | 77.1 ± 10.9% | 85.4 ± 7% |  | 64.6% | > 17.4 µM | 295 to 297 °C | 4.89 µM | > 30 µM |  |  | 
7 | Cc1csc(C=NN=C2C(=O)Nc3ccc(Br)cc32)n1 [Compound 5e, 5-Bromo-3-(((4-methylthiazol-2-yl)methylene)hydrazono)indolin-2-one] | 3.54 ± 0.42 µM | 95.3 ± 3.1% | 96.9 ± 2.4% | 99 ± 1.1% |  | 97.1% | 7.49 µM | 248 to 250 °C | 2.93 ± 0.46 µM | 8.51 µM |  |  | 
8 | O=C1Nc2ccccc2C1=NN=Cc1ccn[nH]1 [Compound 7a, 3-(((1H-pyrazol-5-yl)methylene)hydrazono)indolin-2-one] | 22.9 ± 3.51 µM | 8.2 ± 15.1% | 60.1 ± 5.8% | 60.8 ± 13.1% |  | 43% | > 27.7 µM | 283 to 285 °C | > 30 µM | > 30 µM |  | > 30 µM | 
9 | O=C1Nc2ccc(Cl)cc2C1=NNc1nc(-c2ccc(Cl)cc2)cs1 [Compound 10g, 5-Chloro-3–(2-(4–(4-chlorophenyl)thiazol-2-yl)hydrazono)indolin-2-one] | 6.07 ± 7.41 µM | 18.9 ± 3.2% | 52.8 ± 9.4% | 34.4 ± 23.6% |  | 35.4% | > 12.7 µM | > 300 °C | 1.87 ± 0.26 µM | > 30 µM |  |  | 
10 | Cc1ccc(-c2csc(NN=C3C(=O)Nc4ccc(Cl)cc43)n2)cc1 [Compound 10f, 5-Chloro-3–(2-(4-(p-tolyl)thiazol-2-yl)hydrazono)indolin-2-one] | 22.7 ± 3.71 µM | 27.4 ± 5.8% | 50.3 ± 33.6% | 54.4 ± 19.5% |  | 44% | > 25.4 µM | > 300 °C | 23.4 µM | > 30 µM |  |  | 
11 | COC(=O)c1ccc(C=NN=C2C(=O)Nc3ccccc32)cc1 [Compound 3b, Methyl 4-(((2-oxoindolin-3-ylidene)hydrazono)methyl)benzoate] | 11.2 ± 1.45 µM | 68.1 ± 2.8% | 80.6 ± 7% | 92.3 ± 3.7% | 80.3% | > 80% | 14 µM | 225 to 227 °C | 9.72 ± 2.52 µM | 21.1 ± 1.86 µM |  |  | 
12 | Cc1csc(C=NN=C2C(=O)Nc3ccc(Cl)cc32)n1 [Compound 5c, 5-Chloro-3-(((4-methylthiazol-2-yl)methylene)hydrazono)indolin-2-one] | 2.15 ± 0.23 µM | 98.8 ± 1.5% | 98 ± 2.6% | 96.4 ± 4.8% |  | 97.7% | 2.53 µM | 290 to 292 °C | 1.16 ± 0.39 µM | 4.29 ± 0.25 µM |  |  | 
13 | O=C1Nc2ccc(Br)cc2C1=NNc1nc(-c2ccc(Cl)cc2)cs1 [Compound 10k, 5-Bromo-3–(2-(4–(4-chlorophenyl)thiazol-2-yl)hydrazono)indolin-2-one] | 20.1 ± 3.81 µM | 72.4 ± 3.5% | 50.6 ± 11.5% | 66.8 ± 19.1% |  | 63.3% | 14.5 µM | > 300 °C | 3.61 µM | 19.8 ± 1.63 µM |  |  | 
14 | COC(=O)c1ccc(C=NN=C2C(=O)Nc3ccc(Cl)cc32)cc1 [Compound 3c, Methyl 4-(((5-chloro-2-oxoindolin-3-ylidene)hydrazono)methyl)benzoate] | 6.07 ± 0.9 µM | 93.5 ± 2.8% | 98.9 ± 2.1% | 95.9 ± 4.7% | 96.1% | > 80% | 6.25 µM | 266 to 268 °C | 4.2 ± 0.57 µM | 8.49 ± 1.01 µM |  |  | 
15 | COC(=O)c1ccc(C=NN=C2C(=O)Nc3ccc(Br)cc32)cc1 [Compound 3e, Methyl 4-(((5-bromo-2-oxoindolin-3-ylidene)hydrazono)methyl)benzoate] | > 30 µM | -4.2 ± 9.3% | 55.9 ± 18.2% | 26.3 ± 24.4% |  | 41.1% | > 27.8 µM | 283 to 285 °C | 23.3 µM | > 30 µM |  |  | > 30 µM
